Source: article PMC11420776 (RSC Advances, 2024)

What was measured:
RPMI-8226 (leukemia) = test: NCI 60-cell one-dose antiproliferative screen; assay type: cell-based, human; conditions: one dose 10 μM
OVCAR-3 (ovarian cancer) = test: NCI 60-cell one-dose antiproliferative screen; assay type: cell-based, human; conditions: one dose 10 μM
EKVX (NSC lung cancer) = test: NCI 60-cell one-dose antiproliferative screen; assay type: cell-based, human; conditions: one dose 10 μM
[1] = system: NCI-H322M (NSC lung cancer); test: NCI 60-cell one-dose antiproliferative screen; assay type: cell-based, human; conditions: one dose 10 μM
PC-3 (prostate cancer) = test: NCI 60-cell one-dose antiproliferative screen; assay type: cell-based, human; conditions: one dose 10 μM
M14 (melanoma) = test: NCI 60-cell one-dose antiproliferative screen; assay type: cell-based, human; conditions: one dose 10 μM
[2] = system: NCI-H460 (NSC lung cancer); test: NCI 60-cell one-dose antiproliferative screen; assay type: cell-based, human; conditions: one dose 10 μM
RXF 393 (renal cancer) = test: NCI 60-cell one-dose antiproliferative screen; assay type: cell-based, human; conditions: one dose 10 μM
CAKI-1 (renal cancer) = test: NCI 60-cell one-dose antiproliferative screen; assay type: cell-based, human; conditions: one dose 10 μM
T-47D (breast cancer) = test: NCI 60-cell one-dose antiproliferative screen; assay type: cell-based, human; conditions: one dose 10 μM
CCRF-CEM (leukemia) = test: NCI 60-cell one-dose antiproliferative screen; assay type: cell-based, human; conditions: one dose 10 μM
ACHN (renal cancer) = test: NCI 60-cell one-dose antiproliferative screen; assay type: cell-based, human; conditions: one dose 10 μM
[3] = system: A549/ATCC (NSC lung cancer); test: NCI 60-cell one-dose antiproliferative screen; assay type: cell-based, human; conditions: one dose 10 μM
OVCAR-4 (ovarian cancer) = test: NCI 60-cell one-dose antiproliferative screen; assay type: cell-based, human; conditions: one dose 10 μM
SF-295 (CNS cancer) = test: NCI 60-cell one-dose antiproliferative screen; assay type: cell-based, human; conditions: one dose 10 μM
HOP-92 (NSC lung cancer) = test: NCI 60-cell one-dose antiproliferative screen; assay type: cell-based, human; conditions: one dose 10 μM
[4] = system: NCI-H226 (NSC lung cancer); test: NCI 60-cell one-dose antiproliferative screen; assay type: cell-based, human; conditions: one dose 10 μM
HCT-116 (colon cancer) = test: NCI 60-cell one-dose antiproliferative screen; assay type: cell-based, human; conditions: one dose 10 μM
MDA-MB-435 (melanoma) = test: NCI 60-cell one-dose antiproliferative screen; assay type: cell-based, human; conditions: one dose 10 μM
[5] = system: MDA-MB-231/ATCC (breast cancer); test: NCI 60-cell one-dose antiproliferative screen; assay type: cell-based, human; conditions: one dose 10 μM
DU-145 (prostate cancer) = test: NCI 60-cell one-dose antiproliferative screen; assay type: cell-based, human; conditions: one dose 10 μM
MCF7 (breast cancer) = test: NCI 60-cell one-dose antiproliferative screen; assay type: cell-based, human; conditions: one dose 10 μM
SK-OV-3 (ovarian cancer) = test: NCI 60-cell one-dose antiproliferative screen; assay type: cell-based, human; conditions: one dose 10 μM
COLO-205 (colon cancer) = test: NCI 60-cell one-dose antiproliferative screen; assay type: cell-based, human; conditions: one dose 10 μM
[6] = system: NCI-H522 (NSC lung cancer); test: NCI 60-cell one-dose antiproliferative screen; assay type: cell-based, human; conditions: one dose 10 μM
KM12 (colon cancer) = test: NCI 60-cell one-dose antiproliferative screen; assay type: cell-based, human; conditions: one dose 10 μM
786-0 (renal cancer) = test: NCI 60-cell one-dose antiproliferative screen; assay type: cell-based, human; conditions: one dose 10 μM
HCC-2998 (colon cancer) = test: NCI 60-cell one-dose antiproliferative screen; assay type: cell-based, human; conditions: one dose 10 μM
HOP-62 (NSC lung cancer) = test: NCI 60-cell one-dose antiproliferative screen; assay type: cell-based, human; conditions: one dose 10 μM
[7] = system: MDA-MB-468 (breast cancer); test: NCI 60-cell one-dose antiproliferative screen; assay type: cell-based, human; conditions: one dose 10 μM
SK-MEL-2 (melanoma) = test: NCI 60-cell one-dose antiproliferative screen; assay type: cell-based, human; conditions: one dose 10 μM
HCT-15 (colon cancer) = test: NCI 60-cell one-dose antiproliferative screen; assay type: cell-based, human; conditions: one dose 10 μM
UACC-257 (melanoma) = test: NCI 60-cell one-dose antiproliferative screen; assay type: cell-based, human; conditions: one dose 10 μM
SF-539 (CNS cancer) = test: NCI 60-cell one-dose antiproliferative screen; assay type: cell-based, human; conditions: one dose 10 μM
UACC-62 (melanoma) = test: NCI 60-cell one-dose antiproliferative screen; assay type: cell-based, human; conditions: one dose 10 μM
A498 (renal cancer) = test: NCI 60-cell one-dose antiproliferative screen; assay type: cell-based, human; conditions: one dose 10 μM
SK-MEL-28 (melanoma) = test: NCI 60-cell one-dose antiproliferative screen; assay type: cell-based, human; conditions: one dose 10 μM
[8] = system: NCI-H23 (NSC lung cancer); test: NCI 60-cell one-dose antiproliferative screen; assay type: cell-based, human; conditions: one dose 10 μM
SNB-19 (CNS cancer) = test: NCI 60-cell one-dose antiproliferative screen; assay type: cell-based, human; conditions: one dose 10 μM
LOX IMIV (melanoma) = test: NCI 60-cell one-dose antiproliferative screen; assay type: cell-based, human; conditions: one dose 10 μM
OVCAR-5 (ovarian cancer) = test: NCI 60-cell one-dose antiproliferative screen; assay type: cell-based, human; conditions: one dose 10 μM
[9] = system: NCI/ADR-RES (ovarian cancer); test: NCI 60-cell one-dose antiproliferative screen; assay type: cell-based, human; conditions: one dose 10 μM
U251 (CNS cancer) = test: NCI 60-cell one-dose antiproliferative screen; assay type: cell-based, human; conditions: one dose 10 μM
MALME-3M (melanoma) = test: NCI 60-cell one-dose antiproliferative screen; assay type: cell-based, human; conditions: one dose 10 μM
SW-620 (colon cancer) = test: NCI 60-cell one-dose antiproliferative screen; assay type: cell-based, human; conditions: one dose 10 μM
HS 578T (breast cancer) = test: NCI 60-cell one-dose antiproliferative screen; assay type: cell-based, human; conditions: one dose 10 μM
OVCAR-8 (ovarian cancer) = test: NCI 60-cell one-dose antiproliferative screen; assay type: cell-based, human; conditions: one dose 10 μM
TK-10 (renal cancer) = test: NCI 60-cell one-dose antiproliferative screen; assay type: cell-based, human; conditions: one dose 10 μM
UO-31 (renal cancer) = test: NCI 60-cell one-dose antiproliferative screen; assay type: cell-based, human; conditions: one dose 10 μM
[10] = system: 60 human tumor cell lines; test: NCI 60-cell one-dose antiproliferative screen, whole panel; assay type: cell-based; conditions: Homo sapiens, 60 cell, read-out: Mean inhibition (mean GI%)
SN12C (renal cancer) = test: NCI 60-cell one-dose antiproliferative screen; assay type: cell-based, human; conditions: one dose 10 μM
IGROV1 (ovarian cancer) = test: NCI 60-cell one-dose antiproliferative screen; assay type: cell-based, human; conditions: one dose 10 μM
HT29 (colon cancer) = test: NCI 60-cell one-dose antiproliferative screen; assay type: cell-based, human; conditions: one dose 10 μM
SF-268 (CNS cancer) = test: NCI 60-cell one-dose antiproliferative screen; assay type: cell-based, human; conditions: one dose 10 μM
SNB-75 (CNS cancer) = test: NCI 60-cell one-dose antiproliferative screen; assay type: cell-based, human; conditions: one dose 10 μM

## COc1ccc(-c2nnc3ccc(NN=Cc4ccc(C)cc4)nn23)cc1 [Compound 4f, 3-(4-Methoxyphenyl)-6-(2-(4-methylbenzylidene)hydrazinyl)-[1,2,4]triazolo[4,3-b]pyridazine]
RPMI-8226 (leukemia)
  GI%: — (— GI% is below 15%)
OVCAR-3 (ovarian cancer)
  GI%: 84.42%
EKVX (NSC lung cancer)
  GI%: 31.76%
[1]
  GI%: — (— GI% is below 15%)
PC-3 (prostate cancer)
  GI%: 27.83%
M14 (melanoma)
  GI%: 16.52%
[2]
  GI%: 48.83%
RXF 393 (renal cancer)
  GI%: 37.84%
CAKI-1 (renal cancer)
  GI%: 45.37%
T-47D (breast cancer)
  GI%: 24.01%
CCRF-CEM (leukemia)
  GI%: — (— GI% is below 15%)
ACHN (renal cancer)
  GI%: 41.02%
[3]
  GI%: 66.62%
OVCAR-4 (ovarian cancer)
  GI%: 63.09%
SF-295 (CNS cancer)
  GI%: 43.09%
HOP-92 (NSC lung cancer)
  GI%: 81.11%
[4]
  GI%: 45.38%
HCT-116 (colon cancer)
  GI%: 21.17%
MDA-MB-435 (melanoma)
  GI%: 35.32%
[5]
  GI%: 34.65%
DU-145 (prostate cancer)
  GI%: 60.93%
MCF7 (breast cancer)
  GI%: 42.84%
SK-OV-3 (ovarian cancer)
  GI%: 20.16%
COLO-205 (colon cancer)
  GI%: 20.07%
[6]
  GI%: — (— GI% is below 15%)
KM12 (colon cancer)
  GI%: 31.89%
786-0 (renal cancer)
  GI%: 43.09%
HCC-2998 (colon cancer)
  GI%: 20.85%
HOP-62 (NSC lung cancer)
  GI%: 29.57%
[7]
  GI%: — (— GI% is below 15%)
SK-MEL-2 (melanoma)
  GI%: — (— GI% is below 15%)
HCT-15 (colon cancer)
  GI%: 50.02%
UACC-257 (melanoma)
  GI%: — (— GI% is below 15%)
SF-539 (CNS cancer)
  GI%: 38.74%
UACC-62 (melanoma)
  GI%: — (— GI% is below 15%)
A498 (renal cancer)
  GI%: — (— GI% is below 15%)
SK-MEL-28 (melanoma)
  GI%: — (— GI% is below 15%)
[8]
  GI%: 49.25%
SNB-19 (CNS cancer)
  GI%: — (— GI% is below 15%)
LOX IMIV (melanoma)
  GI%: 76.27%
OVCAR-5 (ovarian cancer)
  GI%: — (— GI% is below 15%)
[9]
  GI%: 74.21%
U251 (CNS cancer)
  GI%: 55.13%
MALME-3M (melanoma)
  GI%: — (— GI% is below 15%)
SW-620 (colon cancer)
  GI%: — (— GI% is below 15%)
HS 578T (breast cancer)
  GI%: 70.93%
OVCAR-8 (ovarian cancer)
  GI%: 58.61%
TK-10 (renal cancer)
  GI%: 17.28%
UO-31 (renal cancer)
  GI%: 66.50%
[10]
  inhibition at 10 µM: 34.8%
SN12C (renal cancer)
  GI%: 23.07%
IGROV1 (ovarian cancer)
  GI%: — (— GI% is below 15%)
HT29 (colon cancer)
  GI%: 17.40%
SF-268 (CNS cancer)
  GI%: 40.91%

## Cc1ccc(-c2nnc3ccc(NN=Cc4ccccc4)nn23)cc1 [Compound 4d, 6-(2-Benzylidenehydrazinyl)-3-(p-tolyl)-[1,2,4]triazolo[4,3-b]pyridazine]
RPMI-8226 (leukemia)
  GI%: 19.37%
OVCAR-3 (ovarian cancer)
  GI%: 69.65%
EKVX (NSC lung cancer)
  GI%: 23.07%
[1]
  GI%: — (— GI% is below 15%)
PC-3 (prostate cancer)
  GI%: — (— GI% is below 15%)
M14 (melanoma)
  GI%: 32.66%
[2]
  GI%: 31.51%
RXF 393 (renal cancer)
  GI%: — (— GI% is below 15%)
CAKI-1 (renal cancer)
  GI%: 16.69%
T-47D (breast cancer)
  GI%: — (— GI% is below 15%)
CCRF-CEM (leukemia)
  GI%: — (— GI% is below 15%)
ACHN (renal cancer)
  GI%: — (— GI% is below 15%)
SNB-75 (CNS cancer)
  GI%: >100%
[3]
  GI%: — (— GI% is below 15%)
OVCAR-4 (ovarian cancer)
  GI%: 30.86%
SF-295 (CNS cancer)
  GI%: 47.66%
HOP-92 (NSC lung cancer)
  GI%: 29.46%
[4]
  GI%: — (— GI% is below 15%)
HCT-116 (colon cancer)
  GI%: — (— GI% is below 15%)
MDA-MB-435 (melanoma)
  GI%: 23.87%
[5]
  GI%: — (— GI% is below 15%)
DU-145 (prostate cancer)
  GI%: 24.06%
MCF7 (breast cancer)
  GI%: 52.06%
SK-OV-3 (ovarian cancer)
  GI%: — (— GI% is below 15%)
COLO-205 (colon cancer)
  GI%: — (— GI% is below 15%)
[6]
  GI%: — (— GI% is below 15%)
KM12 (colon cancer)
  GI%: 42.77%
786-0 (renal cancer)
  GI%: — (— GI% is below 15%)
HCC-2998 (colon cancer)
  GI%: — (— GI% is below 15%)
HOP-62 (NSC lung cancer)
  GI%: — (— GI% is below 15%)
[7]
  GI%: — (— GI% is below 15%)
SK-MEL-2 (melanoma)
  GI%: — (— GI% is below 15%)
HCT-15 (colon cancer)
  GI%: 30.81%
UACC-257 (melanoma)
  GI%: — (— GI% is below 15%)
SF-539 (CNS cancer)
  GI%: 19.19%
UACC-62 (melanoma)
  GI%: — (— GI% is below 15%)
A498 (renal cancer)
  GI%: — (— GI% is below 15%)
SK-MEL-28 (melanoma)
  GI%: — (— GI% is below 15%)
[8]
  GI%: 39.55%
SNB-19 (CNS cancer)
  GI%: — (— GI% is below 15%)
LOX IMIV (melanoma)
  GI%: 52.47%
OVCAR-5 (ovarian cancer)
  GI%: — (— GI% is below 15%)
[9]
  GI%: 15.93%
U251 (CNS cancer)
  GI%: 24.9%
MALME-3M (melanoma)
  GI%: — (— GI% is below 15%)
SW-620 (colon cancer)
  GI%: — (— GI% is below 15%)
HS 578T (breast cancer)
  GI%: 53.45%
OVCAR-8 (ovarian cancer)
  GI%: — (— GI% is below 15%)
TK-10 (renal cancer)
  GI%: — (— GI% is below 15%)
UO-31 (renal cancer)
  GI%: 15.52%
[10]
  inhibition at 10 µM: 18.3%
SN12C (renal cancer)
  GI%: — (— GI% is below 15%)
IGROV1 (ovarian cancer)
  GI%: — (— GI% is below 15%)
HT29 (colon cancer)
  GI%: — (— GI% is below 15%)
SF-268 (CNS cancer)
  GI%: 42.23%
